The subject of series [1] is mouse leukemic P-388 cells. To be noted: cited from earlier work.
The subject of the next series is A549. As to the kind of experiment: Study of cytotoxicity (CellTiter-Blue, 72 hours). It is filed as cell-based. As to conditions: Homo sapiens, read-out: IC50 for different cell lines: A549. As to the method:
(§1) The biological activity of the compounds of the invention was studied in vitro on 7 human cancer cell lines with different tissue origins (HCT116: colorectal carcinoma; K562: chronic myeloid leukemia; B16-F10: melanoma; U87: glioblastoma; A549: lung cancer and MDA-MB 231 and MDA-MB 435: breast cancer). The cells selected for the study were incubated at 37° C. in the presence of one of the compounds added into the culture medium at different concentrations. The whole of the conducted experiments allowed determination of the toxicity level of the tested compound, its effect on the course of the cell cycle as well as its capacity of inducing cell death by apoptosis.
(§2) The cancer cell lines originate from the American Type Culture Collection (Rockville, Md., USA) and were grown according to the recommendations of the supplier.
(§3) The cells A549, U87, MDA-MB231, MDA-MB435 and B16F10 were grown in a culture medium “Dulbecco minimal essential medium” (DMEM) containing 4.5 g/L of glucose and supplemented with 10% fetal calf serum and 1% glutamine. The K562 and HCT116 were grown in an RPMI 1640 medium containing 10% fetal calf serum and 1% glutamine. All the cell lines were maintained in the culture at 37° C. in a humid atmosphere containing 5% of CO2. Cell viability was evaluated by using the reagent “CellTiter-Blue™” (Promega, Wis., USA) while observing the instructions of the manufacturer. The cells were sown in 96-well culture plates with 5000 cells per well in 50 μL of culture medium. After 24 hours of culture, the compounds of general formula (I) dissolved in DMSO were individually added into each of the wells in an amount of 50 μl per well. All the compounds were tested in triplicate for each defined concentration and each experiment was repeated three times. After 72 hours of incubation, 20 μL of resazurin were added in each well. After 2 hours of incubation, the emitted fluorescence was measured at 590 nm after excitation at 560 nm by means of a fluorescence reader of the Victor type (Perkin-Elmer, USA).
(§4) The concentration of each of the compounds which induces the death of 50% of the cells (IC50) was determined after 72 hours of incubation. Certain compounds according to the invention have an IC50 of the order of one nanomolar concentration, therefore equivalent to CA-4 taken as a reference.
(Resazurin is reduced to fluorescent resorufin, in cell work by metabolically active cells.)

In the next series the test system is HCT116. Put plainly: Study of cytotoxicity (CellTiter-Blue, 72 hours). It is filed as cell-based. As to conditions: Homo sapiens, HCT-116; 72 hours of incubation; read-out: IC50 for different cell lines: HCT116. As to the method:
as §1, §2, §3, §4

In the next series the test system is MDA-MB 231. As to the kind of experiment: Study of cytotoxicity (CellTiter-Blue, 72 hours). It is filed as cell-based. As to conditions: Homo sapiens, read-out: IC50 for different cell lines: M231. As for the experimental part:
as §1, §2, §3, §4

A further series deals with MDA-MB 435. Put plainly: Study of cytotoxicity (CellTiter-Blue, 72 hours). It is filed as cell-based. As to conditions: Homo sapiens, read-out: IC50 for different cell lines: M435. As to the method:
as §1, §2, §3, §4

In series [2] the target is T1, purified tubulin from pig brains (Sus scrofa, UniProt P02550+P02554).
T1 construct: from pig brains, where it forms 20-25% of the soluble proteins; from tissue; host or cells: pig brain
Put plainly: Inhibition of polymerization of tubulin (turbidimetry). Format: biochemical. As to conditions: pig brain tubulin, turbidimetry at 350 nm. As to the method:
Tests relating to the inhibition of polymerization of tubulin were carried out on compounds which had the best cytotoxic activities. These tests were carried out on purified tubulin by the Shelanski method (Shelanski, M. C.; Gaskin, F.; Cantor, C. R. Proc. Natl. Acad. Sci. USA, 1973, 70, 765-768) from pig brains, where it forms 20-25% of the soluble proteins. Purification method is based on temperature-dependent assembling-disassembling cycles. Polymerization of tubulin was tracked with turbidimetry according to the Gaskin method (Gaskin, F.; Cantor, C. R.; Shelanski, M. L. J. Bio. Mol. 1974, 89, 737) at a wavelength of 350 nm. The different samples were dissolved in DMSO and incubated for 10 minutes at 37° C. and then for 5 minutes at 0° C.
The CA-4 compound and DMSO were taken as references.
The tests have shown for these compounds an activity inhibiting polymerization of tubulin similar to the one of the reference compound CA-4 (of the order of only one micromolar concentration to a few tens of micromolar concentrations).

In a further series the test system is U87. Put plainly: Study of cytotoxicity (CellTiter-Blue, 72 hours). Format: cell-based. To be noted: Homo sapiens, U-87 MG, read-out: IC50 for different cell lines: U87. As to the method:
as §1, §2, §3, §4

Another series has as its system HCT 15 cells. As to conditions: read-out: IC50, cytotoxic activity; cited from earlier work.
Series [3] concerns mouse colon adenocarcinoma 26. To be noted: cited from earlier work.
The subject of series [4] is human colon tumors LS174T xenografted in Nude mice. Put plainly: Antivascular activity in vivo (MRI, Dotarem entry into tumors). To be noted: LS174T xenograft, 3 hours after administration, DMXAA 27.5 mg/kg IP, (I-1) 45 mg/kg IV. As to the method:
The antivascular effect of the molecule (I-1) was tested on mice bearing human tumors by comparison with the positive control DMXAA, according to the procedure described by Beauregard et al. (NMR Biomed., 2002, 15:99-105).
Thus, CD-1 Nude female mice were xenografted by subcutaneous injection of human colon tumoral cells (LS174T). The mice bearing tumors were then treated with 0.9% NaCl (carrier, 10 mL/kg), DMXAA (27.5 mg/kg) via an intraperitoneal route (IP) or the molecule (I-1) (45 mg/kg) via an intravenous route (IV). Three hours after administration, the mice were treated with the Dotarem® contrast agent intravenously (IV). The penetration of the contrast agent into the tumors was followed in real time by magnetic resonance imaging (MRI) and is expressed by an enhancement of the intensity of the signal in the tumors. Densitometric analysis of the acquired images allows determination of the maximum enhancement (Rmax) as well as the slope P0 corresponding to the entry rate of Dotarem® into the tumors.

[5] abbreviates: MDA-MB-231, 72 hours of incubation.
Setting [6] is: MDA-MB-435, 72 hours of incubation.

The structures appear in SMILES notation. Like-named read-outs stand apart in the source and are kept apart here.

T1 sequence (P02554 whole entry): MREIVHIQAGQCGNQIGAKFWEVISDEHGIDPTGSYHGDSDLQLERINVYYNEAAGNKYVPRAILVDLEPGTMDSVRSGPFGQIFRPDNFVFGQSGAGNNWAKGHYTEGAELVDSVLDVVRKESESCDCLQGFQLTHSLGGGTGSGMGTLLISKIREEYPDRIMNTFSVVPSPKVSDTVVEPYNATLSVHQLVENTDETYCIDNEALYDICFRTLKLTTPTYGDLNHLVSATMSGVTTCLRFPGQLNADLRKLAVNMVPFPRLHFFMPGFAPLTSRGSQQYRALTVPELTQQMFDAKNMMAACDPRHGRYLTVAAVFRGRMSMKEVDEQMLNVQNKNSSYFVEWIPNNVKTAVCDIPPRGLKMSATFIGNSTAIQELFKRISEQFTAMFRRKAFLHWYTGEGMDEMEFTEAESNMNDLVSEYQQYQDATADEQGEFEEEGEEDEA
T1 sequence (P02550 whole entry): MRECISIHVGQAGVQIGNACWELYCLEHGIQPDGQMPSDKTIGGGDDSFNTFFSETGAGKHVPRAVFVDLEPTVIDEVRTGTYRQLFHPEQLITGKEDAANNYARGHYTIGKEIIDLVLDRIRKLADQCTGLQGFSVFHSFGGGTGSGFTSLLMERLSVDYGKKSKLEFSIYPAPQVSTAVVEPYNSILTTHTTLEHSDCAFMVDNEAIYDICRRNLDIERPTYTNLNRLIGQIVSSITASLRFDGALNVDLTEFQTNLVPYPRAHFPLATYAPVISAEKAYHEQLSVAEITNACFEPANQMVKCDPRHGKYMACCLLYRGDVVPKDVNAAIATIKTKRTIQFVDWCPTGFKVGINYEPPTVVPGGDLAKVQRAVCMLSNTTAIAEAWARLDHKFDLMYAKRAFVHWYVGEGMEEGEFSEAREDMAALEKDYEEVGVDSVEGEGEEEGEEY

Turning to `COc1ccc(C=Cc2cc(OC)c(OC)c(OC)c2)cc1O` (single isomer, unassigned) [E isomer of CA-4], the “Cytotoxic activity, times weaker than the natural Z isomer” value in [1] is “about 60 times”.
The term IC50 denotes the concentration needed to halve the response being measured. Turning to `C=C(c1ccc(OC)cc1)c1cc(OC)c(OC)c(OC)c1` [(I-2)], the IC50 in the series on A549 (A549, 72 hours of incubation) is 28 nM; in the series on HCT116, 42 nM; with MDA-MB 231 (setting [5]), 40 nM; in the series with MDA-MB 435 (setting [6]), 25 nM; in series [2], 2000 to 3300 nM.
For `C=C(c1ccc(OC)c(OC(C)=O)c1)c1cc(OC)c(OC)c(OC)c1` [(I-6)], the IC50 in the series with A549 (A549, 72 hours of incubation) was determined as 25 nM; in the series with HCT116, 8 nM; in the series with MDA-MB 231 (setting [5]) it was 9 nM; in the series with MDA-MB 435 (setting [6]), 11 nM; with U87 (72 hours of incubation), 18 nM.
For the compound `C=C(c1ccc(OC)c(OC(=O)C(C)(C)C)c1)c1cc(OC)c(OC)c(OC)c1` [(I-7)], the IC50 in the series on A549 (A549, 72 hours of incubation) worked out at 28 nM; with HCT116, 8 nM; in the series with MDA-MB 231 (setting [5]) it was 50 nM; in the series on MDA-MB 435 (setting [6]) it was 25 nM; with U87 (72 hours of incubation), 15 nM.
In the case of `C=C(c1ccc(OC)c(OC(=O)CCCc2ccc(N(CCCl)CCCl)cc2)c1)c1cc(OC)c(OC)c(OC)c1` [(I-8)], the IC50 in the series on A549 (A549, 72 h) is 42 nM; in the series with HCT116, 25 nM; with MDA-MB 231 (MDA-MB-231, 72 h), 50 nM; with MDA-MB 435 (MDA-MB-435, 72 h), 40 nM; with U87 (72 h) it was 35 nM.
`C=C(c1ccc(OC)c(N)c1)c1cc(OC)c(OC)c(OC)c1` [(I-17)]: the IC50 in the series on A549 (A549, 72 hours of incubation) was 8 nM; in the series on MDA-MB 231 (setting [5]), 6 nM; in series [2] it was 1800 nM.
In the case of `C=C(c1ccc(OC)c(F)c1)c1cc(OC)c(OC)c(OC)c1` [(I-22)], the IC50 in the series on HCT116 came out at 7 nM; in [2] it was 4100 nM.
Consider `C=C(c1ccc(OC)c(OC(=O)[C@@H](COC(C)(C)C)NC(=O)OCC2c3ccccc3-c3ccccc32)c1)c1cc(OC)c(OC)c(OC)c1` [(I-32)], for which, in the series with HCT116, the half-inhibitory concentration (IC50) amounted to 8 nM.
Same read-out and setting: the same measure for `C=C(c1ccc(OC)c(OC(=O)c2ccncc2)c1)c1cc(OC)c(OC)c(OC)c1` [(I-34)]: 3 nM; for `C=C(c1ccc(OC)c(OC(=O)CCC(=O)O)c1)c1cc(OC)c(OC)c(OC)c1` [(I-35)]: 5 nM; for `C=C(c1ccc(OC)c(OC(=O)CN(C)C)c1)c1cc(OC)c(OC)c(OC)c1` [(I-36)]: 3 nM.
The same measure, in the same setting: the same measure for `C=C(c1ccc(OC)c(OC(=O)Cc2cccc3c(=O)c4ccc(C)c(C)c4oc23)c1)c1cc(OC)c(OC)c(OC)c1` [(I-45)]: 7 nM.
Turning to `COc1ccc(/C=C\c2cc(OC)c(OC)c(OC)c2)cc1O` [CA-4, combrestatatin A-4], the IC50 in the series with HCT 15 cells is 0.9 nM. Further, the “Antitumoral activity in vivo” value in series [3] is “no antitumoral activity is observed”.
With `Cc1ccc2c(=O)c3cccc(CC(=O)O)c3oc2c1C` [DMXAA, 5,6-dimethylxanthenone-4-acetic acid, reference compound], in [4], the “Average of P0” value is given as 0.50±0.40 arbitrary unit and the “Average of Rmax” value is 26.58±21.19 % of the NaCl control.

The values are drawn from patent US8273768B2, “Iso CA-4 and analogues thereof as potent cytotoxic agents inhibiting tubuline polymerization” (Centre National de la Recherche Scientifique (CNRS), priority 2007, dated 2012).
